Measured values as given in ChEMBL document CHEMBL1152920, “Monoterpene glucosides from Paeonia lactiflora” (J Nat Prod, 2009).
Active and inactive are the calls of the source. No cut-off for these calls is given here.

Tested on: PC-12
Test: Cytoprotective activity against hydrogen peroxide-induced cell damage in rat PC12 cells assessed as cell viability treated 2 hrs before hydrogen peroxide challenge by MTT assay
Assay type: functional, cell-based

Row | Structure (SMILES) | Activity
1 | C=C1C(OC)O[C@]2(O[C@@H]3O[C@H](CO)[C@@H](O)[C@H](O)[C@H]3O)C[C@H]1C(=O)C=C2C (some centres undefined) | Active
2 | COC1O[C@@]2(C)CC(=O)[C@@H]3C[C@]2(O[C@@H]2O[C@H](CO)[C@@H](O)[C@H](O)[C@H]2O)[C@]13CO (some centres undefined) | Active
3 | CC1=CC(=O)[C@@H]2C[C@@]1(O[C@@H]1O[C@H](CO)[C@@H](O)[C@H](O)[C@H]1O)OC=C2CO | Active
4 | COCC1=CO[C@]2(O[C@@H]3O[C@H](CO)[C@@H](O)[C@H](O)[C@H]3O)C[C@H]1C(=O)C=C2C | Active
